US10376540B2, “Tungsten (VI) salts used to treat infertility, for stimulating fertility and normal reproduction in a non-diabetic female mammal, and for improving the effectiveness of assisted reproduction techniques” (OXOLIFE, S.L., priority 2014, dated 2019)
Values joined by “and” are separate entries in the source; they are usually repeats but may differ in a detail not shown here. Equal values may be shown once.

How the values were obtained:
[1] = test system: HEC1-A endometrial cell line and JEG-3 trophectoderm cell line; test: In vitro endometrial embryonic adhesion study (JEG-3 spheroids on HEC-1A monolayer); assay type: cell-based, human; settings: for Absolute adhesion rate / Absolute adhesion rate, Mean: HEC-1A treated 24 hours (sodium tungstate 10 μM); for Absolute adhesion rate: adhesion after 60 minutes; for Embryonic adhesion versus untreated HEC-1A cells (in words): HEC-1A treated 24 hours; for Absolute adhesion rate, Mean: Mean of Exp 1-3, baseline 30%
Text: An “in vitro” human-human embryonic adhesion model made up the HEC1-A endometrial cell line and the JEG-3 trophectoderm cell line was used to determine the effect of sodium tungstate on endometrial receptivity.
The use of in vitro models, and specifically the model based on the mentioned cell lines (HEC-1A and JEG-3), is considered a standard model for studying endometrial receptivity and particularly the adhesion the trophoblast to the endometrium (Fertility and Sterility 2011; 96, 522-529; Methods in Enzymology 2006; 420:3-18 or FASEB J. 201; 26:3715-3727).
The JEG-3 cell line which simulates the trophectoderm cells of a human embryo are cells that grow in monolayers in laboratory using low adherence plates and are capable of forming spheroids simulating the human embryo; this is one of the most widely used cell lines for conducting in vitro embryonic adhesion assay.
The cell lines were commercially purchased (American Type Culture Collection (ATCC); Rockville, Md., USA) for conducting the endometrial embryonic adhesion experiments. They were thawed and expanded in 4 passes for obtaining sufficient cells to perform all the assays.
The HEC1-A cells were plated in 24-well plates and cultured with McCoy 5A culture medium supplemented with 10% fetal bovine serum and 0.1% antibiotics (fungizone and penicillin), until reaching 90% confluence. After reaching the confluence, there was added to the culture medium sodium tungstate at a final concentration of 10 μM, as well as Withaferin A (as a control, a compound that prevents embryonic adhesion) or culture medium (baseline adhesion data), without any additional component, for 24 hours.
The JEG-3 cells were plated in low adherent plates with Eagle's minimal essential medium (EMEM) culture medium supplemented with 10% fetal bovine serum and 0.1% antibiotics (fungizone and penicillin). Twenty-four hours before the adhesion assay, the JEG-3 trophoblast spheroids were formed from this culture. To that end, JEG-3 cells in the medium described above were suspended in an Erlenmeyer flask under stirring at a concentration of 6×10^5 cells/6 ml. The resulting spheroids were collected for the adhesion assay.
For the adhesion assay, 24 hours after culturing the HEC-1A cells with culture medium adding sodium tungstate, Withaferin A or without adding any treatment, the culture medium was changed with fresh culture medium without treatments under study. The trophectoderm spheroids were added onto the monolayer of HEC-1A cells, placing 6 to 10 spheroids per well. The adhesion of the spheroids was measured after 60 minutes, counting spheroid that was floating in the culture medium as non-adhered spheroid and spheroid that was not floating as adhered spheroid. The examination was conducted with an inverted microscope (Nikon Diaphot 300; Nikon Corp., Tokyo, Japan). The assay was conducted in triplicate.

IRS2−/− female mice [2] = test: Ovulation study: phase of the estrous cycle in vaginal smears (Papanicolau); assay type: in vivo; design: key to Phase of the estrous cycle in vaginal smear: A: Anestrus; D: Diestrus; P: Proestrus; E: Estrus; M: Metestrus; settings: for Phase of the estrous cycle in vaginal smear: individual IRS2−/− female mice, dihydrate
Text: The mouse model used for determining the activity of tungsten (VI) salts for favoring normal reproduction and fertility is an Irs2 gene knock-out mouse, IRS2^−/−[Burks et. al., “IRS-2 pathways integrate female reproduction and energy homeostasis”, Nature, 2000, vol. 407, pp. 377-382]. Irs2 gene deletion translates into a clear sexual dimorphism in relation to fertility and carbohydrate metabolism.
The male mice of this model have insulin resistance and severe hyperglycemia that started at an early age. In contrast, the female mice remain relatively euglycemic at an early age and develop slight insulin resistance which remains until a later age (4-5 months). IRS2^−/− female mice at an early age, about 10 weeks old, show a low follicular development and persistent anovulation, accompanied by the absence of estrous cycle in most mice. The pregnancy rate in IRS2^−/− female mice is 9% compared to the rate of 100% in IRS^wt (IRS-2^−/− wild type) female mice. Given that female mice at these ages remain euglycemic and that they only develop slight insulin resistance, the profound impairment in fertility is not a direct result of anomalies in glucose metabolism.
(§1) Ten IRS2^−/− female mice of ages comprised between 6 and 8 weeks. Six “wild-type” (IRS2^wt) male mice of ages comprised between 6 and 8 weeks. The female and male mice were housed separately in normal conditions, i.e., a 12 h light/darkness cycle and controlled temperature and humidity. The animals were fed at will (also referred to as ad libitum) with a standard feed diet.
(§2) After an acclimatization period, the IRS2^−/− female mice were housed in groups of 4-6 mice/cage. Tungstate salt-free drinking water was administered to the animals during the pre-treatment phase (2 weeks).
(§3) Sodium tungstate was administered in the drinking water (ad libitum) by means of a solution of 2 mg/ml of sodium tungstate dihydrate (marketed by Carlo Erba) in distilled water after the pre-treatment phase (day 0 of treatment) and up to 4 weeks before sacrificing the animals. The daily dose of sodium tungstate ingested by the mice was about 180 mg/kg of body weight.
During the pre-treatment period and during the first 3 weeks of treatment, vaginal smears were performed in 6 randomly chosen female mice on days −8; −5; −2; −1; 7; 8; 14; 15 and 22, to determine the phase of the estrous cycle they were in.
Between […] of saline solution was introduced into the vagina of the mice with a Pasteur pipette. Vaginal exudate was collected with the same pipette and spread on a slide. Once air-dried, it was fixed and stained with the Papanicolau technique.
The Papanicolau technique comprises staining the vaginal smears fixed on the slide in the following manner: • 10 immersions in 50% v/v alcohol; • Immersing in Harris hematoxylin solution for 3 minutes; • Rinsing with running water; • 10 immersions in acid alcohol (1% hydrochloric acid); • Rinsing with running water; • 10 immersions in 95% v/v alcohol; • Immersing in OG-6 solution for 30 seconds; • 10 immersions in 96% v/v alcohol; • Immersing in eosin solution for 1 minute; • 10 immersions in 96% v/v alcohol; • 10 immersions in 86% v/v alcohol; and • 10 immersions in xylol
The preparations were analyzed by trained staff using a coding in a single-blind manner for eliminating observer bias.
The samples were identified in the following phases: diestrus, proestrus, estrus, metestrus, anestrus or non-evaluable. The cyclical nature of the four phases in periods of 4 to 6 days are indicative of a normal estrous cycle, whereas the absence of this cyclical nature and the persistence in anestrus, diestrus or proestrus phases are indicative of the absence of estrous cycle.

IRS2−/− female mice [3] = test: Implantation and pregnancy study after cross-breeding with IRS2wt male mice; assay type: in vivo
Method: as §1, §2, §3
After the first three weeks of treatment, the IRS2^−/− female mice were housed in cages in pairs together with a IRS2^wt male mouse continuously.
The mice were observed daily to look for signs of pregnancy or birth.
After 4 weeks, the male mice were exchanged between the cages and they were kept therein for another 4 weeks.
The administration of tungstate was maintained for 8 weeks in which male and female mice were housed together. After these 8 weeks, treatment was withdrawn and the male and female mice were housed together for 4 additional weeks.
After this period, the female mice were sacrificed and biopsy was carried out to look for indications of pregnancy.
After the cross-breeding period of the method of section B, the female mice were sacrificed and biopsies were carried out to look for indications of pregnancy.

[4] = test system: rats with diabetes and insulinopenia induced by streptozotocin; settings: streptozotocin-diabetic females after prolonged treatment (10 weeks), mated with healthy males; non-diabetic 100%; cited from earlier work
[5] = individual treated IRS2−/− female mice, dihydrate

CC1=C(CO)C(=O)O[C@@H]([C@@H](C)[C@H]2CC[C@H]3[C@@H]4C[C@H]5O[C@]56[C@@H](O)C=CC(=O)[C@]6(C)[C@H]4CC[C@]23C)C1 [Withaferin A, reference compound]
Absolute adhesion rate ([1]; Exp 1, baseline 12%): 0%
Absolute adhesion rate ([1]; Exp 2, baseline 48%): 0%
Absolute adhesion rate ([1]; Exp 3, baseline 31%): 0%
Embryonic adhesion versus untreated HEC-1A cells (in words) [1]: No adhesion whatsoever
Absolute adhesion rate, Mean [1]: 0%

O.O.[Na+].[Na+].[O]=[W](=[O])([O-])[O-] [sodium tungstate, sodium tungstate dihydrate]
Phase of the estrous cycle in vaginal smear (IRS2−/− female mice [2]; day 7 of treatment, 2 mg/ml sodium tungstate dihydrate in drinking water (about 180 mg/kg/day)): M and E (4×) and E-M
Phase of the estrous cycle in vaginal smear (IRS2−/− female mice [2]; day 8 of treatment, 2 mg/ml in drinking water): M and E-M (3×) and E (2×)
Phase of the estrous cycle in vaginal smear (IRS2−/− female mice [2]; day 14 of treatment, 2 mg/ml in drinking water): E and E-M (3×) and D
Phase of the estrous cycle in vaginal smear (IRS2−/− female mice [2]; day 15 of treatment, 2 mg/ml in drinking water): D and E (2×) and M (2×) and A
Phase of the estrous cycle in vaginal smear (IRS2−/− female mice [2]; day 22 of treatment, 2 mg/ml in drinking water): D (2×) and A (2×) and M and P
Analyzed mice with recovery of the estrous cycle (IRS2−/− female mice [2]; on the seventh day of treatment, infertile, non-diabetic IRS2−/− female mice): 100%
Pregnancy rate (IRS2−/− female mice [3]; IRS2−/− female mice treated with tungstate (untreated 9%)): 80%
Pregnancy (IRS2−/− female mice [3]; individual treated IRS2−/− female mice, 2 mg/ml in drinking water, cross-bred with IRS2wt males, dihydrate): YES
Number of embryos implanted or young born (embryos implanted) (IRS2−/− female mice [3]; [5]): 7 embryos (3×) and 6 embryos
Number of embryos implanted or young born (young born) (IRS2−/− female mice [3]; [5]): 3 young and 8 young (2×) and 1 young
Mean of young/implanted embryos per pregnant female mouse (IRS2−/− female mice [3]; treated IRS2−/− female mice): about 5
Absolute adhesion rate ([1]; Exp 1, baseline 12%): 31%
Absolute adhesion rate ([1]; Exp 2, baseline 48%): 65%
Absolute adhesion rate ([1]; Exp 3, baseline 31%): 35%
Embryonic adhesion versus untreated HEC-1A cells (in words) [1]: higher percentage of embryonic adhesion
Absolute adhesion rate, Mean [1]: 44%
Percentage of births with respect to the number of positive curettages [4]: 66%
